Assay results taken from patent publication US9617602B2, “Methods and compositions for determining resistance to androgen receptor therapy” (Aragon Pharmaceuticals, Inc., priority 2012, dated 2017).
Residue numbers refer to the chain shown, from its start.

Columns and labels:
F876L AR = target: T1, F876L AR (Homo sapiens, UniProt P10275, DEL79-80/DUP473-473/F877L)
T1 sequence (P10275 with tags, fused parts or gaps DEL79-80/DUP473-473/F877L): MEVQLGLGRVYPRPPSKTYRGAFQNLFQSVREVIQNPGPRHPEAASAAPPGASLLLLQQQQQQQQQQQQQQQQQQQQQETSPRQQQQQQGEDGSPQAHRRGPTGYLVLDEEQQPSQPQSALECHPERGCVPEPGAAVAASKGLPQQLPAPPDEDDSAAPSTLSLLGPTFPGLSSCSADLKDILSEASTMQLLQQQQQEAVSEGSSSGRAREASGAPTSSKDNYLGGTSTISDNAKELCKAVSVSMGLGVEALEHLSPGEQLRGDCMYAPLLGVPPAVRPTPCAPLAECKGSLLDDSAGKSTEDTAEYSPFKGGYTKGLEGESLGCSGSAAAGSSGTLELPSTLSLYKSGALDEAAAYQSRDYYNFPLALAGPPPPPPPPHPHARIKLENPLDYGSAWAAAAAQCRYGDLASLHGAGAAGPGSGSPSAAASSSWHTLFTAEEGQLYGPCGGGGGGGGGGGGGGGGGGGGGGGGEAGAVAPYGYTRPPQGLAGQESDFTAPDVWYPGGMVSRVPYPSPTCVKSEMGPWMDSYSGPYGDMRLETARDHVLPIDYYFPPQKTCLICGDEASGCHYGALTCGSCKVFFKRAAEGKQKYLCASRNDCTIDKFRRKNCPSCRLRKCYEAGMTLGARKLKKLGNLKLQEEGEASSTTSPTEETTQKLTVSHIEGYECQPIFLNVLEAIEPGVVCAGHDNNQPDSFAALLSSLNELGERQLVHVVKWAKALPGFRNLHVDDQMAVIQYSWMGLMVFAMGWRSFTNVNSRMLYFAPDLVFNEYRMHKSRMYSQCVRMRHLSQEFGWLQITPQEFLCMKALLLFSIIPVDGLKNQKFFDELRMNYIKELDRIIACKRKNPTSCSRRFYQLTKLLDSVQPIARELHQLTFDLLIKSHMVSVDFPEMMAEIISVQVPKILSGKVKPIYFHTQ
Method: (§1) Transcriptional reporter assays were performed by seeding 100 μL of HEPG2 cells at a density of 250,000 cells/mL into 96-well cell culture plates in MEM supplemented with 10% charcoal stripped serum and allowed to attach overnight at 37° C.
(§2) Cells were transiently transfected using Lipofectin® (Life Technologies) according to the manufacturer's protocol.
(§3) Following 48 hour incubation the medium was removed and the cells were lysed in 40 μL of lysis buffer (25 mM Tris Phosphate, 2 mM CDTA, 10% Glycerol, 0.5% Triton X-100, 2 mM DTT).
(§4) The AR transcriptional reporter assays were performed essentially as described above with minor modifications. Triplicate transfections were performed using 50 ng pCDNA3-AR or pCDNA3-AR mutant, 65 ng 4×ARE-Luciferase, 20 ng pRL (Promega), and 25 ng pCMX.

F876L VP16-AR = F876L VP16-AR (Homo sapiens, UniProt P10275, DEL79-80/DUP473-473/F877L)
Method: (§5) AR point mutations were generated in VP16-AR using the QuickChange II Site-Directed Mutagenesis Kit (Agilent Technologies, Santa Clara, Calif.) according to the manufacturer's protocol.
(§6) Transcription assays were performed essentially as described above. […] Luciferase activity was measured as described above.

wild-type AR = target: T2, wild-type AR (Homo sapiens, UniProt P10275, DEL79-80/DUP473-473)
T2 sequence (P10275 with tags, fused parts or gaps DEL79-80/DUP473-473): T1 sequence (P10275 with tags, fused parts or gaps DEL79-80/DUP473-473/F877L) with L876F
Method: as §1, §2, §3, §4

wild-type VP16-AR = wild-type VP16-AR (Homo sapiens, UniProt P10275)
Method: as §5, §6

CC(C)(O)C(=O)Nc1ccc([N+](=O)[O-])c(C(F)(F)F)c1 [Hydroxyflutamide, hydroxyflutamide]
4X ARE Reporter Assay F876L Emax (F876L AR): 0.8 ± 0.2 percent maximal R1881 response
AR-VP16 F876L Emax (F876L VP16-AR): 5.36 ± 5.35 percent maximal R1881 response
4X ARE Reporter Assay WT Emax (wild-type AR): 28.9 ± 5.0 percent maximal R1881 response
AR-VP16 WT Emax (wild-type VP16-AR): 42.28 ± 4.44 percent maximal R1881 response
